Laboratory results published in ChEMBL document CHEMBL1201862, “PubChem BioAssay data set” (2004).
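A five-concentration, 48-hour dose response in 96-well plates underlies each endpoint, interpolated linearly between surrounding concentrations. The concentration for 50% growth inhibition is given as GI50.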 The source made the active and inactive calls. Cut-off read from the data, not from the text of the source: active = GI50 up to about 1.1 µM and inactive = higher.

Columns and labels:
Experiment in all cases: NCI anticancer screen, dose series, 48 h
IGROV-1 = system: IGROV-1
CCRF-CEM = system: CCRF-CEM
UACC-62 = system: UACC-62
SK-MEL-28 = system: SK-MEL-28
MDA-MB-231 = system: MDA-MB-231
UO-31 = system: UO-31
HCT-15 = system: HCT-15
SK-MEL-2 = system: SK-MEL-2
SNB-19 = system: SNB-19
SF-268 = system: SF-268
OVCAR-4 = system: OVCAR-4
SN12C = system: SN12C
SR = system: SR
A549 = system: A549
OVCAR-3 = system: OVCAR-3
U-251 = system: U-251
SK-MEL-5 = system: SK-MEL-5
HT-29 = system: HT-29
HL-60 = system: HL-60
NCI/ADR-RES = system: NCI/ADR-RES
SF-295 = system: SF-295
M14 = system: M14
COLO 205 = system: COLO 205
NCI-H23 = system: NCI-H23
MDA-N = system: MDA-N
TK-10 = system: TK-10
SF-539 = system: SF-539
HOP-62 = system: HOP-62
PC-3 = system: PC-3
SNB-75 = system: SNB-75
RXF 393 = system: RXF 393
RPMI-8226 = system: RPMI-8226
KM12 = system: KM12
SW-620 = system: SW-620
EKVX = system: EKVX
LOX IMVI = system: LOX IMVI
HOP-92 = system: HOP-92
MDA-MB-435 = system: MDA-MB-435
MOLT-4 = system: MOLT-4
DU-145 = system: DU-145
OVCAR-8 = system: OVCAR-8
MCF7 = system: MCF7
UACC-257 = system: UACC-257
786-0 = system: 786-0
CAKI-1 = system: CAKI-1
Malme-3M = system: Malme-3M
K562 = system: K562
NCI-H522 = system: NCI-H522
ACHN = system: ACHN
HCT-116 = system: HCT-116
Hs-578T = system: Hs-578T
SK-OV-3 = system: SK-OV-3
NCI-H460 = system: NCI-H460
T47D = system: T47D
NCI-H226 = system: NCI-H226
BT-549 = system: BT-549
OVCAR-5 = system: OVCAR-5
HCC 2998 = system: HCC 2998

N#CC(NCCc1ccccc1)c1ccccc1 (stereo not given)
GI50 (IGROV-1): > 100 µM (inactive)
GI50 (CCRF-CEM): > 100 µM (inactive)
GI50 (UACC-62): > 100 µM (inactive)
GI50 (SK-MEL-28): > 100 µM (inactive)
GI50 (MDA-MB-231): > 100 µM (inactive)
GI50 (UO-31): > 100 µM (inactive)
GI50 (HCT-15): > 100 µM
GI50 (SK-MEL-2): > 100 µM (inactive)
GI50 (SNB-19): > 100 µM (inactive)
GI50 (SF-268): > 100 µM (inactive)
GI50 (OVCAR-4): > 100 µM (inactive)
GI50 (SN12C): > 100 µM (inactive)
GI50 (SR): > 100 µM (inactive)
GI50 (A549): > 100 µM (inactive)
GI50 (OVCAR-3): > 100 µM (inactive)
GI50 (U-251): > 100 µM (inactive)
GI50 (SK-MEL-5): > 100 µM (inactive)
GI50 (HT-29): > 100 µM (inactive)
GI50 (HL-60): > 100 µM (inactive)
GI50 (NCI/ADR-RES): > 100 µM (inactive)
GI50 (SF-295): > 100 µM (inactive)
GI50 (M14): > 100 µM (inactive)
GI50 (COLO 205): > 100 µM (inactive)
GI50 (NCI-H23): > 100 µM (inactive)
GI50 (MDA-N): > 100 µM (inactive)
GI50 (TK-10): > 100 µM (inactive)
GI50 (SF-539): > 100 µM (inactive)
GI50 (HOP-62): > 100 µM (inactive)
GI50 (PC-3): > 100 µM (inactive)
GI50 (SNB-75): > 100 µM (inactive)
GI50 (RXF 393): > 100 µM (inactive)
GI50 (RPMI-8226): > 100 µM (inactive)
GI50 (KM12): > 100 µM (inactive)
GI50 (SW-620): > 100 µM (inactive)
GI50 (EKVX): > 100 µM (inactive)
GI50 (LOX IMVI): > 100 µM (inactive)
GI50 (HOP-92): > 100 µM (inactive)
GI50 (MDA-MB-435): > 100 µM (inactive)
GI50 (MOLT-4): > 100 µM (inactive)
GI50 (DU-145): > 100 µM (inactive)
GI50 (OVCAR-8): > 100 µM (inactive)
GI50 (MCF7): > 100 µM (inactive)
GI50 (UACC-257): > 100 µM (inactive)
GI50 (786-0): > 100 µM (inactive)
GI50 (CAKI-1): > 100 µM (inactive)
GI50 (Malme-3M): > 100 µM (inactive)
GI50 (K562): > 10 µM (inactive)
GI50 (NCI-H522): > 100 µM (inactive)
GI50 (ACHN): > 100 µM (inactive)
GI50 (HCT-116): > 100 µM (inactive)
GI50 (Hs-578T): > 100 µM (inactive)
GI50 (SK-OV-3): > 100 µM (inactive)
GI50 (NCI-H460): > 100 µM (inactive)
GI50 (T47D): > 100 µM (inactive)
GI50 (NCI-H226): > 100 µM (inactive)
GI50 (BT-549): > 100 µM (inactive)
GI50 (OVCAR-5): > 100 µM (inactive)
GI50 (HCC 2998): > 100 µM (inactive)

CC(=O)C(C(=O)C(C)(C)C)C(=O)C(C)(C)C
GI50 (CCRF-CEM): > 100 µM (inactive)
GI50 (UACC-62): > 100 µM (inactive)
GI50 (SK-MEL-28): > 100 µM (inactive)
GI50 (MDA-MB-231): > 100 µM (inactive)
GI50 (UO-31): > 100 µM (inactive)
GI50 (HCT-15): > 100 µM
GI50 (SK-MEL-2): > 100 µM (inactive)
GI50 (SNB-19): > 100 µM (inactive)
GI50 (SF-268): > 100 µM (inactive)
GI50 (OVCAR-4): > 100 µM (inactive)
GI50 (SN12C): > 100 µM (inactive)
GI50 (SR): > 100 µM (inactive)
GI50 (A549): > 100 µM (inactive)
GI50 (U-251): > 100 µM (inactive)
GI50 (SK-MEL-5): > 100 µM (inactive)
GI50 (HL-60): > 100 µM (inactive)
GI50 (NCI/ADR-RES): > 100 µM (inactive)
GI50 (SF-295): > 100 µM (inactive)
GI50 (M14): > 100 µM (inactive)
GI50 (COLO 205): > 100 µM (inactive)
GI50 (MDA-N): > 100 µM (inactive)
GI50 (TK-10): > 100 µM (inactive)
GI50 (SF-539): > 100 µM (inactive)
GI50 (HOP-62): > 100 µM (inactive)
GI50 (PC-3): > 100 µM (inactive)
GI50 (SNB-75): 59.4 µM (inactive)
GI50 (RXF 393): > 100 µM (inactive)
GI50 (RPMI-8226): > 100 µM (inactive)
GI50 (KM12): > 100 µM (inactive)
GI50 (SW-620): > 100 µM (inactive)
GI50 (LOX IMVI): > 100 µM (inactive)
GI50 (HOP-92): > 100 µM (inactive)
GI50 (MDA-MB-435): > 100 µM (inactive)
GI50 (MOLT-4): > 100 µM (inactive)
GI50 (DU-145): > 100 µM (inactive)
GI50 (OVCAR-8): > 100 µM (inactive)
GI50 (MCF7): > 100 µM (inactive)
GI50 (UACC-257): > 100 µM (inactive)
GI50 (786-0): > 100 µM (inactive)
GI50 (CAKI-1): > 100 µM (inactive)
GI50 (Malme-3M): > 100 µM (inactive)
GI50 (K562): > 100 µM (inactive)
GI50 (NCI-H522): > 100 µM (inactive)
GI50 (ACHN): > 100 µM (inactive)
GI50 (HCT-116): > 100 µM (inactive)
GI50 (Hs-578T): > 100 µM (inactive)
GI50 (SK-OV-3): > 100 µM (inactive)
GI50 (NCI-H460): > 100 µM (inactive)
GI50 (T47D): > 100 µM (inactive)
GI50 (BT-549): > 100 µM (inactive)
GI50 (OVCAR-5): > 100 µM (inactive)
GI50 (HCC 2998): > 100 µM (inactive)
